# Patent US7951374B2, “Methods for inhibiting STAT3 signaling in immune cells” (University of South Florida, priority 2004, dated 2011)
# How the values were obtained:
# MB49 tumors = assay: Growth of established MB49 tumors in mice treated with CPA-7; type: in vivo, mouse
# Protocol: For CPA-7 treatment, MB49 tumors were implanted into male C57BL/6 mice and tumors were allowed to grow until 5-7 mm in diameter. Mice were given intravenous injections of either vehicle (10% DMSO/PBS) or 5 mg/kg CPA-7 once every 3 days.
# Mice with MB49 tumors (about 6 mm in diameter) received intravenous injections of either vehicle or CPA-7.
# Mice with established MB49 tumors were treated with vehicle or CPA-7 in combination with control or asialo GM1-specific antibody.
# Phospho-Stat3 (Stat3P) = biological target: T1, Phospho-Stat3 (Stat3P) (Mus musculus, UniProt P42227); assay: Phospho-Stat3 levels in MB49 tumor-infiltrating DCs after intravenous CPA-7, intracellular flow cytometry; type: in vivo; settings: 24 hours after intravenous injection, compared to vehicle-treated mice (FIG. 33)
# T1 construct: from tissue; host or cells: tumor-infiltrating dendritic cells from MB49 tumors of mice
# T1 sequence (P42227 whole entry): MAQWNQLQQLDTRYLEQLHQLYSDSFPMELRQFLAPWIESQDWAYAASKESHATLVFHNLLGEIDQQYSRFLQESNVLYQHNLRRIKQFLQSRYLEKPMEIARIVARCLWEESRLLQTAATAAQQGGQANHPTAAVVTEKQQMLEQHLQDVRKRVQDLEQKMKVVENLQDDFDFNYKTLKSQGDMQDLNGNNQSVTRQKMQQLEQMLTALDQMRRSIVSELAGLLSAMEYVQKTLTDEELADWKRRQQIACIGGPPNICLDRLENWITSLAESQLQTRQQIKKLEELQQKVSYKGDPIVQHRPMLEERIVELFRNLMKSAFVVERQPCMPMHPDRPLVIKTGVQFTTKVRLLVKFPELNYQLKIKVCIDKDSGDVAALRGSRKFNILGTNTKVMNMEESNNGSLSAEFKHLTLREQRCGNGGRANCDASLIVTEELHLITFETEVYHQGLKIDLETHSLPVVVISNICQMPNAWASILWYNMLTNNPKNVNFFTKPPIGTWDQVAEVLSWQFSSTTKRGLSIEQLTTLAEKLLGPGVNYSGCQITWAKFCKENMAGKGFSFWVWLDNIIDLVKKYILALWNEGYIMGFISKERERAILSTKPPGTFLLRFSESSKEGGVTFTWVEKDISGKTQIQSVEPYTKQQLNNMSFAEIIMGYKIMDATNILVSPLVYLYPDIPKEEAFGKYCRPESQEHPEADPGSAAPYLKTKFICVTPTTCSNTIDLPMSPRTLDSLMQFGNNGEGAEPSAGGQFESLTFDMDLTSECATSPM
# Protocol: (§1) Isolation of tumor-infiltrating immune cell subsets and intracellular staining of signaling molecules. Freshly excised tumor tissues were gently minced into small pieces and incubated in 400 U/ml of collagenase D (Roche) solution for 30 minutes at 37° C. Cell suspensions were filtered through a mesh filter for isolation of various immune cell subsets using specific antibodies in combination with EASYSEP magnetic nanoparticles (StemCell Technologies, Canada). Isolated tumor-infiltrating cells were fixed in paraformaldehyde and permeated in methanol before intracellular staining with antibodies to phosphotyrosine-Stat3 and Stat1 (BD Biosciences) or with Foxp3-specific antibody (eBiosciences). Fluorescence data was collected on FACSCalibur (Beckton Dickinson) and analyzed using FlowJo software (Tree Star).
# (§2) To further characterize activation of CPA-7 treated immune cells, Phospho-Stat3 (Stat3P) levels in tumor-infiltrating DCs were assessed 24 hours after intravenous injection with vehicle or CPA-7 and compared to splenic CD11c^+ cells from tumor-free Stat3^+/+ mice. […] Also shown in FIG. 33, CPA-7 treated tumor-infiltrating DCs have increased phosphorylated Stat1.
# phosphorylated Stat1 = assay: Stat1P levels in tumor-infiltrating DCs after intravenous CPA-7, intracellular flow cytometry; type: in vivo, mouse; settings: 24 hours after intravenous injection (FIG. 33)
# Protocol: as §1, §2
# YAC-1 cells = assay: 51Cr-release assay of NK cell cytotoxicity from tumor-bearing mice treated with CPA-7; type: in vivo, mouse; settings: NK cells from tumor-bearing mice treated with CPA-7, YAC-1 targets (FIG. 35)
# Protocol: Cytotoxicity assays. NK cell and neutrophil cytotoxicity assays were performed as described by Wei, S. et al., J. Exp. Med. 187, 1753-1765 (1998), which is incorporated herein by reference. Briefly, a 4-hour ^51Cr-release assay was carried out using YAC-1 cells as targets for enriched NK cells or FcγR^+ mouse mastocytoma (P815) cells as targets for enriched neutrophils. Cytotoxicity of CPA-7-treated NK cells from tumor-bearing hosts was assessed using a standard ^51Cr-release assay with YAC-1 cells as targets, as described in Example 1.
# [1] = system: MB49, B16 or C4 tumor cells; assay: Lung tumor nodules after intravenous tumor cell injection and CPA-7 treatment; type: in vivo, mouse; settings: 5×10^4 MB49, B16 or C4 cells i.v., CPA-7 5 mg/kg twice weekly, day 21 (FIG. 38)
# Protocol: Mice were injected intravenously with 5×10^4 MB49, B16 or C4 tumor cells, followed by twice weekly treatment with CPA-7 (5 mg/kg) or vehicle (10% DMSO). Lung colonies were enumerated 21 days later, when control mice became moribund.
# To visualize lung tumor nodules, lungs were fixed and bleached in Fekete's solution with or without India ink as a counterstain.
# Stat3 = biological target: T2, Stat3 (Mus musculus, UniProt P42227); assay: EMSA of Stat DNA binding in DC2.4 dendritic cells preincubated with CPA-7 (Stat3); type: cell-based; settings: DC2.4 cells, 10 μm CPA-7 overnight, then 20 ng/ml IL-6 for 20 minutes, EMSA (FIG. 32)
# T2 construct: endogenous in cells; host or cells: mouse DC2.4 dendritic cells
# T2 sequence (P42227 whole entry): as above
# Protocol: Mouse DC2.4 dendritic cells were preincubated with 10 μm CPA-7 overnight and then stimulated for 20 minutes with 20 ng/ml IL-6 (activator of both Stat3 and Stat1), 500 U/ml IFN-γ (activator of […]) or 20 ng/ml GM-CSF (activator of Stat5). After cell lysis, nuclear extracts were prepared and EMSA was conducted to detect DNA binding.
# [2] = Immunohistochemical analysis of colon sections for autoimmune pathology; type: in vivo, mouse; settings: tumor-bearing Stat3+/+ and Stat3−/− mice, CPA-7 every third day for three weeks (FIG. 30)
# Protocol: Transverse colon sections were stained with hematoxylin-eosin and antibodies to CD4, CD8 or CD11b. Staining with rat IgG was used as a negative control.
# Colons from tumor free Stat3^−/− mice were evaluated for autoimmune effects at 20 weeks after Stat3 deletion by immunohistochemical analysis. […] In contrast, there was virtually no evidence of systemic autoimmunity at 4 weeks after induced depletion in tumor-bearing Stat3^+/+ and Stat3^−/− mice (FIG. 29).
# MB49 tumor cells = assay: CPA-7-induced tumor-cell apoptosis in vitro by annexin V staining; type: cell-based, mouse; settings: annexin V staining (FIG. 31)
# Protocol: Cell lines. Mouse B16 melanoma, YAC-1 and P815 target cells were purchased from American Type Culture Collection. MB49 bladder carcinoma and C4 mouse melanoma lines were gifts from T. Ratliff (University of Iowa) and J. Fidler (M.D. Anderson Cancer Center), respectively.
# Flow cytometry. Single-cell suspensions were prepared by mechanic dispersion of spleen or tumor tissues. 1×10^6 freshly prepared cells suspended in a mixture of PBS, 2% FCS and 0.1% (wt/vol) sodium azide were preincubated with FcγIII/IIR-specific antibody to block nonspecific binding and cells were stained with different combinations of fluorochrome-coupled antibodies to CD11c, I-A^b (MHC class II), CD86, CD11b, Gr1, CD49b, CD3, CD25 or Lag-3, or with annexin V (BD Biosciences). Fluorescence data was collected on FACSCalibur (Beckton Dickinson) and analyzed using FlowJo software (Tree Star).
# The effects of blocking Stat3 in immune cells with CPA-7, a small-molecule Stat3 inhibitor, were assessed. For these experiments, both B16 and MB49 tumor cells were used. In contrast to B16, MB49 tumor cells are insensitive to CPA-7-induced tumor-cell apoptosis, as determined by annexin V staining.
compound,measurement,setting,value
[NH2][Pt]([NH2])([Cl])([Cl])([Cl])[N+](=O)[O-] [CPA-7],growth of established tumors,"MB49 tumors; MB49 tumors about 6 mm in diameter, intravenous CPA-7 5 mg/kg once every 3 days (FIG. 34)",inhibits the growth of established tumors
same,CPA-7-induced tumor growth inhibition in the absence of CD4+ and CD8+ T cells,"MB49 tumors; MB49 tumors, antibodies to CD4 and CD8 (FIG. 34)",abrogated
same,in vivo antitumor effects of CPA-7 treatment with NK depletion,"MB49 tumors; established MB49 tumors, asialo GM1-specific antibody (FIG. 36)",partially abrogates
same,phosphorylated Stat3 in tumor-infiltrating DCs,Phospho-Stat3 (Stat3P),considerably reduced
same,phosphorylated Stat1 in tumor-infiltrating DCs,phosphorylated Stat1,increased
same,NK cell activity (cytotoxicity),YAC-1 cells,increased
same,lung tumor nodules,[1],significantly reduced or completely abrogated
same,inhibition of Stat3 DNA binding,Stat3,inhibits Stat3
same,pathologic changes in colons,[2],lack of pathologic changes
same,sensitivity to CPA-7-induced tumor-cell apoptosis,MB49 tumor cells,insensitive
